# Measurements published in US12054487B2, “Muscarinic acetylcholine M1 receptor antagonists” (Contineum Therapeutics, Inc., priority 2018, dated 2024).
# pIC50: −log10 of the molar value.
# Key:
# Format in all cases: cell-based
# M3 = M3 (Homo sapiens, UniProt P20309); assay: In vitro functional assay of muscarinic acetylcholine receptor activity, M3; conditions: antagonist activity; M3 method not separately described
# Protocol: [The procedure below names another target; the source lists this target under the same test.] (§1) CHO-K1 cells stably expressing human M1 receptor with Aequorin (Perkin Elmer) were grown in F12 media, 10% FBS with 0.4 mg/mL geneticin and […]. Cells were grown to confluence and frozen down to be assayed at a later date. On the day of the experiment cells were thawed in a 37° C. water bath, resuspended in DMEM/HAM's F12 with HEPES (Invitrogen)+0.1% protease-free BSA (assay buffer), and spun down to remove freezing media. After centrifugation, supernatant was removed and 12 mL of assay buffer was added. Coelenterazine h (Promega) was added to the cells at a final concentration of 5 uM and incubated for 4 hours at room temperature in the dark. Compound master plate-96 deep well (Corning) were formatted in a 8-point DRC in assay buffer with 0.2% DMSO at a starting concentration of 60 uM (2×). After 4 hours of incubation, cells were plated at a concentration of 5×10^5 cells/well in 96 well white-walled, tissue culture-treated, clear-bottom plates (VWR). Compounds were added to the daughter plate, and cells plus compound were incubated at room temperature for 30 minutes in the dark.
# (§2) Calcium flux was measured using the FlexStation 3 (Molecular Devices). To measure the antagonist dose-response, the EC80 of Acetylcholine was injected to the daughter plate using the automated compound transfer function of the Flex Station, and the increase in luminescence was measured over time. Antagonist activity was analyzed as a concentration dependent decrease in the EC80 acetylcholine response. Dose response curves were generated using Prism (GraphPad Software). The IC50 of the compounds was calculated from the dose response curve.
# M2 = target: T1, M2 (Homo sapiens, UniProt P08172); assay: In vitro functional assay of muscarinic acetylcholine receptor activity, M2; conditions: antagonist activity; M2 method not separately described
# T1 sequence (P08172 1-466): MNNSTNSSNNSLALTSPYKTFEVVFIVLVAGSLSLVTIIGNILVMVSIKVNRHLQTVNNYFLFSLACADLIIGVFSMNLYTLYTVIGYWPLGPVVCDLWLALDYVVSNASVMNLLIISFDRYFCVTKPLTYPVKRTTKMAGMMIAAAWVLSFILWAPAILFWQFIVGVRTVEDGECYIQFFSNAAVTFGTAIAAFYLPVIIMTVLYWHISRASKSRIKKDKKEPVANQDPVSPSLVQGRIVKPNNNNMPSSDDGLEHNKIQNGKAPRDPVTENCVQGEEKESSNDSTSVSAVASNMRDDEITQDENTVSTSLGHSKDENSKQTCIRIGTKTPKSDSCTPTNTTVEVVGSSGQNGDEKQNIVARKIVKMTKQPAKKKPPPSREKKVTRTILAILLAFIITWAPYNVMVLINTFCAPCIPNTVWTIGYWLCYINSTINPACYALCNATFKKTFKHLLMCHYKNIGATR
# Protocol: [The procedure below names another target; the source lists this target under the same test.] as §1, §2
# human M1 receptor = target: T2, human M1 receptor (Homo sapiens, UniProt P11229); assay: In vitro functional assay of muscarinic acetylcholine receptor activity (aequorin calcium flux, antagonist mode vs EC80 acetylcholine), M1; conditions: CHO-K1 cells stably expressing human M1 receptor with Aequorin; decrease in EC80 acetylcholine response
# T2 construct: host or cells: CHO-K1
# T2 sequence (P11229 1-460): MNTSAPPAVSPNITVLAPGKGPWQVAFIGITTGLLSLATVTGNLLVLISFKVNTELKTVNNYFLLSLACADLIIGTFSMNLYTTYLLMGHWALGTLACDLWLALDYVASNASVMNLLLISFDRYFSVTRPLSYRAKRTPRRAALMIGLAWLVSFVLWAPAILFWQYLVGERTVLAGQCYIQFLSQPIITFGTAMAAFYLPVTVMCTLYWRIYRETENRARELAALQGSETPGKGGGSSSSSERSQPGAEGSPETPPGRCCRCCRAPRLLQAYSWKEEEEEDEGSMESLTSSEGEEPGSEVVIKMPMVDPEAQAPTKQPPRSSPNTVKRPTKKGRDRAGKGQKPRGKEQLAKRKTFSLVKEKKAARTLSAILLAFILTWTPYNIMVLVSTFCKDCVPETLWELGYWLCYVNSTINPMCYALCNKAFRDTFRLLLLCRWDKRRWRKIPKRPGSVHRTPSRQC
# Protocol: as §1, §2
# Sequence of M3 (P20309 whole entry): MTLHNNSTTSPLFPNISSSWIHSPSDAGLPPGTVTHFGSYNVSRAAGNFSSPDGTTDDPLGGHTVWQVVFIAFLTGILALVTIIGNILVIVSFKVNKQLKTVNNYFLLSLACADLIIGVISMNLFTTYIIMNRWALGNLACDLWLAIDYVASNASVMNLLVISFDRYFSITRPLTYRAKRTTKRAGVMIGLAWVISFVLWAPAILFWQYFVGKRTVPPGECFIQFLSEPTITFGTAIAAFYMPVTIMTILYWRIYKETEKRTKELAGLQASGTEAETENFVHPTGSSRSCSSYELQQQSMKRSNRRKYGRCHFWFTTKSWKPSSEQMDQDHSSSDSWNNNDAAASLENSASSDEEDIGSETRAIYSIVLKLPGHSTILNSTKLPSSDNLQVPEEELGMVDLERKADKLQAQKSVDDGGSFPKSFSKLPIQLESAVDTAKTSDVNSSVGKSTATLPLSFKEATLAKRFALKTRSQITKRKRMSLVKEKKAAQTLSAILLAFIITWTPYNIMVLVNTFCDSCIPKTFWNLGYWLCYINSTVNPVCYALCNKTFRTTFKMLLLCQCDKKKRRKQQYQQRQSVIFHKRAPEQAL
Structure (SMILES),pIC50 (M3),pIC50 (M2),pIC50 (human M1 receptor)
"O=C1[C@@H](CCCc2cccc3ncnn23)C[C@H]2CN(c3ccc(CO)cn3)CCN12 [Example 53, (7S,8aS)-7-(3-([1,2,4]triazolo[1,5-a]pyridin-5-yl)propyl)-2-(5-(hydroxymethyl)pyridin-2-yl)hexahydropyrrolo[1,2-a]pyrazin-6(2H)-one]",< 5.00,5.00 to 6.00,> 7.00
"O=C1[C@@H](CCCc2cccn3ncnc23)C[C@H]2CN(c3ccc(F)cc3F)CCN12 [Example 71, (7S,8aS)-7-(3-([1,2,4]triazolo[1,5-a]pyridin-8-yl)propyl)-2-(2,4-difluorophenyl)hexahydropyrrolo[1,2-a]pyrazin-6(2H)-one]",< 5.00,5.00 to 6.00,5.00 to 6.00
"O=C1[C@H](CCCc2cccc3ncsc23)C[C@@H]2CN(c3ccncc3F)CCN12 [Example 8, (7R,8aR)-7-(3-(benzo[d]thiazol-7-yl)propyl)-2-(3-fluoropyridin-4-yl)hexahydropyrrolo[1,2-a]pyrazin-6(2H)-one]",< 5.00,< 5.00,< 5.00
"O=C1[C@@H](CCCc2cccc3ncnn23)C[C@H]2CN(c3ccc(Cl)cn3)CCN12 [Example 34, (7S,8aS)-7-(3-([1,2,4]triazolo[1,5-a]pyridin-5-yl)propyl)-2-(5-chloropyridin-2-yl)hexahydropyrrolo[1,2-a]pyrazin-6(2H)-one]",5.00 to 6.00,5.00 to 6.00,> 7.00
"N#Cc1ccc(N2CCN3C(=O)[C@@H](CCCc4cccc5c4NCCN5)C[C@H]3C2)nc1 [Example 61, 6-((7S,8aS)-6-oxo-7-(3-(1,2,3,4-tetrahydroquinoxalin-5-yl)propyl)hexahydropyrrolo[1,2-a]pyrazin-2(1H)-yl)nicotinonitrile]",< 5.00,5.00 to 6.00,6.00 to 7.00
N#Cc1ccc(N2CCN3C(=O)[C@@H](CCCc4cccn5ccnc45)C[C@H]3C2)nc1 [Example 15],5.00 to 6.00,< 5.00,6.00 to 7.00
"N#Cc1ccc(N2CCN3C(=O)[C@@H](CCCc4cccc5ncsc45)C[C@H]3C2)nc1 [Example 10, 6-((7S,8aS)-7-(3-(benzo[d]thiazol-7-yl)propyl)-6-oxohexahydropyrrolo[1,2-a]pyrazin-2(1H)-yl)nicotinonitrile]",5.00 to 6.00,6.00 to 7.00,> 7.00
"Nc1cc(N2CCN3C(=O)[C@@H](CCCc4cccc5ncsc45)C[C@H]3C2)ccn1 [Example 30, (7S,8aS)-2-(2-aminopyridin-4-yl)-7-(3-(benzo[d]thiazol-7-yl)propyl)hexahydropyrrolo[1,2-a]pyrazin-6(2H)-one]",5.00 to 6.00,5.00 to 6.00,> 7.00
"Cn1cnc2cccc(CCC[C@H]3C[C@H]4CN(c5ccc(C#N)cn5)CCN4C3=O)c21 [Example 54, 6-((7S,8aS)-7-(3-(1-methyl-1H-benzo[d]imidazol-7-yl)propyl)-6-oxohexahydropyrrolo[1,2-a]pyrazin-2(1H)-yl)nicotinonitrile]",5.00 to 6.00,6.00 to 7.00,> 7.00
"O=C1C(CCCc2cccc3ncsc23)CC2CN(c3ccncc3F)CCN12 (racemic) [Example 6, 7-(3-(benzo[d]thiazol-7-yl)propyl)-2-(3-fluoropyridin-4-yl)hexahydropyrrolo[1,2-a]pyrazin-6(2H)-one]",< 5.00,5.00 to 6.00,6.00 to 7.00

# More lines, now with the values ahead:
pIC50 (M3),pIC50 (M2),pIC50 (human M1 receptor),Structure (SMILES)
5.00 to 6.00,6.00 to 7.00,> 7.00,"N#Cc1ccc(N2CCN3C(=O)[C@@H](CCCc4cccc5c4CCO5)C[C@H]3C2)nc1 [Example 19, 6-((7S,8aS)-7-(3-(2,3-dihydrobenzofuran-4-yl)propyl)-6-oxohexahydropyrrolo[1,2-a]pyrazin-2(1H)-yl)nicotinonitrile]"
5.00 to 6.00,5.00 to 6.00,6.00 to 7.00,"N#Cc1ccc(N2CCN3C(=O)[C@@H](CCCc4cccc5cncn45)C[C@H]3C2)nc1 [Example 14, 6-((7S,8aS)-7-(3-(imidazo[1,5-a]pyridin-5-yl)propyl)-6-oxohexahydropyrrolo[1,2-a]pyrazin-2(1H)-yl)nicotinonitrile]"
5.00 to 6.00,5.00 to 6.00,> 7.00,"O=C1C(CCCc2cccc3ncnn23)C[C@H]2CN(c3ccc(C(F)F)cn3)CCN12 (mixture of isomers) [Example 46, (8aS)-7-(3-([1,2,4]triazolo[1,5-a]pyridin-5-yl)propyl)-2-(5-(difluoromethyl)pyridin-2-yl)hexahydropyrrolo[1,2-a]pyrazin-6(2H)-one]"
5.00 to 6.00,5.00 to 6.00,6.00 to 7.00,"N#Cc1ccc(N2CCN3C(=O)[C@@H](CCCc4ccc5c(c4)CCO5)C[C@H]3C2)nc1 [Example 20, 6-((7S,8aS)-7-(3-(2,3-dihydrobenzofuran-5-yl)propyl)-6-oxohexahydropyrrolo[1,2-a]pyrazin-2(1H)-yl)nicotinonitrile]"
5.00 to 6.00,< 5.00,> 7.00,"O=C1[C@@H](CCCc2cccn3ncnc23)C[C@H]2CN(c3ncc(F)cn3)CCN12 [Example 63, (7S,8aS)-7-(3-([1,2,4]triazolo[1,5-a]pyridin-8-yl)propyl)-2-(5-fluoropyrimidin-2-yl)hexahydropyrrolo[1,2-a]pyrazin-6(2H)-one]"
5.00 to 6.00,5.00 to 6.00,> 7.00,"O=C1C(CCCc2cccc3ncnn23)C[C@H]2CN(c3ccc(F)cn3)CCN12 (mixture of isomers) [Example 41, (7S,8aS)-7-(3-([1,2,4]triazolo[1,5-a]pyridin-5-yl)propyl)-2-(5-fluoropyridin-2-yl)hexahydropyrrolo[1,2-a]pyrazin-6(2H)-one]"
5.00 to 6.00,5.00 to 6.00,> 7.00,"O=C1[C@@H](CCCc2c(F)ccn3ncnc23)C[C@H]2CN(c3ccc(F)cn3)CCN12 [Example 78, (7S,8aS)-7-(3-{7-fluoro-[1,2,4]triazolo[1,5-a]pyridin-8-yl}propyl)-2-(5-fluoropyridin-2-yl)-octahydropyrrolo[1,2-a]pyrazin-6-one]"
6.00 to 7.00,6.00 to 7.00,> 7.00,"N#Cc1cc(N2CCN3C(=O)[C@@H](CCCc4cccc5ncsc45)C[C@H]3C2)ccn1 [Example 11, 4-((7S,8aS)-7-(3-(benzo[d]thiazol-7-yl)propyl)-6-oxohexahydropyrrolo[1,2-a]pyrazin-2(1H)-yl)picolinonitrile]"
6.00 to 7.00,6.00 to 7.00,> 7.00,"O=C1[C@@H](CCCc2cccc3ncsc23)C[C@H]2CN(c3ccncc3)CCN12 [Example 28, (7S,8aS)-7-(3-(benzo[d]thiazol-7-yl)propyl)-2-(pyridin-4-yl)hexahydropyrrolo[1,2-a]pyrazin-6(2H)-one]"
6.00 to 7.00,6.00 to 7.00,6.00 to 7.00,"N#Cc1ccc(N2CCN3C(=O)[C@@H](CCCc4cccc5nncn45)C[C@H]3C2)nc1 [Example 16, 6-((7S,8aS)-7-(3-([1,2,4]triazolo[4,3-a]pyridin-5-yl)propyl)-6-oxohexahydropyrrolo[1,2-a]pyrazin-2(1H)-yl)nicotinonitrile]"
6.00 to 7.00,6.00 to 7.00,> 7.00,"N#Cc1ccc(N2CCN3C(=O)[C@@H](CCCc4cccn5nccc45)C[C@H]3C2)nc1 [Example 58, 6-((7S,8aS)-6-oxo-7-(3-(pyrazolo[1,5-a]pyridin-4-yl)propyl)hexahydropyrrolo[1,2-a]pyrazin-2(1H)-yl)nicotinonitrile]"
